Values quoted from earlier work as cited in US20210368801A1, “COMPOSITION FOR PREPARING HYPOCHLOROUS ACID WATER, AND TEST PAPER FOR DETERMINING HYPOCHLOROUS ACID WATER” (Wabian Co., Ltd., priority 2020, published 2021).

Experiments:
[1] = electrolytic type; http://www.jsia.gr.jp/data/naclo.pdf
coronavirus = details: as an effective chlorine amount, according to NITE

SMILES | LD50 [1] | effective concentration for the coronavirus (coronavirus)
OCl [sodium hypochlorite] | 1000 mg/kg | –
OCl [hypochlorous acid] | – | 35 ppm
